Laboratory results: ChEMBL document CHEMBL4673336, “Design, synthesis and stepwise optimization of nitrile-based inhibitors of cathepsins B and L” (Bioorg Med Chem, 2021)

Legend:
Cathepsin S [1] = biological target: T1, Cathepsin S (Homo sapiens, UniProt P25774); test: Inhibition of human cathepsin S
Target sequence in this assay (P25774 whole entry): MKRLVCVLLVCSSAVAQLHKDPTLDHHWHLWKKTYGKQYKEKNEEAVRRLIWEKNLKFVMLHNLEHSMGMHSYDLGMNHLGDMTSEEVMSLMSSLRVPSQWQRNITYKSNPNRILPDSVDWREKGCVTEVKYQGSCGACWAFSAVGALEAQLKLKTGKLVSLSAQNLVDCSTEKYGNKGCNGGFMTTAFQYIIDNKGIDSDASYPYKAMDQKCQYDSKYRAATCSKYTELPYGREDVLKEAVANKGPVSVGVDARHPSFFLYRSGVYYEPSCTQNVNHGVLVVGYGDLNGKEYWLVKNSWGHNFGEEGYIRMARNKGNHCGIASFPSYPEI

Procathepsin L [2] = biological target: T2, Procathepsin L (Homo sapiens, UniProt P07711); test: Inhibition of human cathepsin L
Target sequence in this assay (P07711 whole entry): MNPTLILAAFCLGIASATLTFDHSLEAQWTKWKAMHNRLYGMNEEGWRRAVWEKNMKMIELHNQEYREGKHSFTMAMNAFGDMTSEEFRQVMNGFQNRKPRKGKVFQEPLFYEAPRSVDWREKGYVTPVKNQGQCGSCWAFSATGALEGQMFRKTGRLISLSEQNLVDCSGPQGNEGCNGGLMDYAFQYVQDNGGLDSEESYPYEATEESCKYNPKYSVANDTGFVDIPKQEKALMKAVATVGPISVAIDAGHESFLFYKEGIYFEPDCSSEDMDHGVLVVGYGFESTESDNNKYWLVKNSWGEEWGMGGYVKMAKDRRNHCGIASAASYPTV

Cathepsin K = biological target: T3, Cathepsin K (Homo sapiens, UniProt P43235); test: Inhibition of recombinant human cathepsin K using Z-Leu-Arg-AMC as substrate measured after 20 mins
T3 sequence (P43235 whole entry): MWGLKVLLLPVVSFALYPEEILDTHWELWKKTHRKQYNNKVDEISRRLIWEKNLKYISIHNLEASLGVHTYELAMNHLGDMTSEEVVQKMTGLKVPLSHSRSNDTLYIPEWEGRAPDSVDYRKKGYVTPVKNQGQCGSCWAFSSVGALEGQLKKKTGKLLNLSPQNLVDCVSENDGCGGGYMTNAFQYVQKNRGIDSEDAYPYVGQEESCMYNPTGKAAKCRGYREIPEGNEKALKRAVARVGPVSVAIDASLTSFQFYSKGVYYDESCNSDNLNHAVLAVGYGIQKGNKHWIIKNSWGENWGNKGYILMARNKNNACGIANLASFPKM

Cathepsin B [3] = biological target: T4, Cathepsin B (Homo sapiens, UniProt P07858); test: Inhibition of human cathepsin B using Z-Phe-Arg-AMC fluorogenic peptide as substrate preincubated for 2 mins followed by substrate addition and measured for 5 mins by fluorescence assay
Procathepsin L [4] = biological target: T2, Procathepsin L; test: Inhibition of human cathepsin L at 10 uM relative to control
Target sequence in this assay (P07711 114-333 limits assumed): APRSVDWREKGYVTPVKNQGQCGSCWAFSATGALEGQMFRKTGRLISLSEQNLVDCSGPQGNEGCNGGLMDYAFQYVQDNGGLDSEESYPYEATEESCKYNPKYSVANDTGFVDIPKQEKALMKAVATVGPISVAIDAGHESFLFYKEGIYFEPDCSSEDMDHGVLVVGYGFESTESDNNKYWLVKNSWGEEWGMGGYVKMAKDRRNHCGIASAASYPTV

Cathepsin S [5] = biological target: T1, Cathepsin S; test: Inhibition of human cathepsin S at 10 uM relative to control
Target sequence in this assay (P25774 115-331 limits assumed): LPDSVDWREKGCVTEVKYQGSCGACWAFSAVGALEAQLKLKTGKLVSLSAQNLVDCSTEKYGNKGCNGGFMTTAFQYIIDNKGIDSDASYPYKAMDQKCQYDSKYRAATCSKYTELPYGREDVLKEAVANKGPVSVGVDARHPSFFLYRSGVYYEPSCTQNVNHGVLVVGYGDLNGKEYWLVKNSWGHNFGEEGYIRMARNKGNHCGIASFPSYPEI

[6] = biological target: T5, Cathepsin K (Homo sapiens) (UniProt P43235); test: Inhibition of recombinant human cathepsin K at 10 uM using Z-Leu-Arg-AMC as substrate measured after 20 mins relative to control
T5 sequence (whole entry): T3 sequence (P43235 whole entry)

Cathepsin B [7] = biological target: T4, Cathepsin B; test: Inhibition of human cathepsin B at pH 6 using Z-Phe-Arg-AMC fluorogenic peptide as substrate preincubated for 2 mins followed by substrate addition and measured for 5 mins by fluorescence assay
Cathepsin B [8] = biological target: T4, Cathepsin B; test: Inhibition of human cathepsin B at pH 4.5 using Z-Phe-Arg-AMC fluorogenic peptide as substrate preincubated for 2 mins followed by substrate addition and measured for 5 mins by fluorescence assay
Homo sapiens [9] = species on record: Homo sapiens; test: Selectivity index, ratio of pKi for human cathepsin B using Z-Phe-Arg-AMC fluorogenic peptide as substrate preincubated for 2 mins followed by substrate addition and measured for 5 mins by fluorescence assay to pKi for human cathepsin L; settings: time 7.0 min
Homo sapiens [10] = species on record: Homo sapiens; test: Selectivity index, ratio of pKi for human cathepsin S to pKi for human cathepsin L
Cathepsin B [11] = biological target: T4, Cathepsin B; test: Inhibition of human cathepsin B at 10 uM using Z-Phe-Arg-AMC fluorogenic peptide as substrate preincubated for 2 mins followed by substrate addition and measured for 5 mins by fluorescence assay relative to control; settings: time 7.0 min
Homo sapiens [12] = species on record: Homo sapiens; test: Selectivity index, ratio of pKi for human cathepsin S to pKi for human cathepsin B using Z-Phe-Arg-AMC fluorogenic peptide as substrate preincubated for 2 mins followed by substrate addition and measured for 5 mins by fluorescence assay; settings: time 7.0 min
[13] = biological target: Cathepsin (S and K) (Homo sapiens) (UniProt P25774+P43235); test: Selectivity index, ratio of pKi for human cathepsin S to pKi for recombinant human cathepsin K using Z-Leu-Arg-AMC as substrate measured after 20 mins; format: protein assay
Chain of Cathepsin (S and K) (Homo sapiens) (P25774 whole entry, looked up, one chain of several): as the sequence (P25774 whole entry) above

Row | SMILES | Ki (Cathepsin S [1]) [nM] | Ki (Procathepsin L [2]) [nM] | Ki (Cathepsin K) [nM] | Ki (Cathepsin B [3]) [nM] | inhibition (Procathepsin L [4]) [%] | inhibition (Cathepsin S [5]) [%] | inhibition [6] [%] | IC50 (Cathepsin B [7]) [nM] | IC50 (Cathepsin B [8]) [nM] | Ratio pKi (Homo sapiens [9]) | Ratio pKi (Homo sapiens [10]) | inhibition (Cathepsin B [11]) [%] | Ratio pKi (Homo sapiens [12]) | Ratio pKi [13]
1 | C[C@@H](OCc1ccccc1)[C@@H](C#N)NC(=O)[C@H](Cc1cccc(Cl)c1)NC(=O)c1ccc(Br)cc1 | 126 | 7.94 | 5010 | 12.6 | – | – | – | – | – | – | – | – | – | –
2 | C[C@@H](OCc1ccccc1)[C@@H](C#N)NC(=O)[C@H](Cc1cccc(Cl)c1)NS(=O)(=O)c1cccc(Br)c1 | 79.4 | 0.251 | 631 | 39.8 | – | – | – | – | – | – | – | – | – | –
3 | C[C@@H](OCc1ccccc1)[C@@H](C#N)NC(=O)[C@H](Cc1cccc(Br)c1)NC(=O)c1ccc(-c2ccccc2)cc1 | 501 | > 10000 | > 10000 | 50.1 | 55 | – | > 90 | 92.6 | 39.4 | – | – | – | – | –
4 | C[C@@H](OCc1ccccc1)[C@@H](C#N)NC(=O)[C@H](Cc1cccc(Cl)c1)NS(=O)(=O)c1cccc(-c2ccccc2)c1 | 631 | 200 | > 10000 | 25.1 | – | – | – | – | – | – | – | – | – | –
5 | C[C@@H](OCc1ccccc1)[C@@H](C#N)NC(=O)[C@H](Cc1cccc(Cl)c1)NC(=O)c1ccc(-c2ccccc2)cc1 | 79.4 | > 10000 | 1580 | 31.6 | 61 | – | – | 57.8 | 42.3 | – | – | – | – | –
6 | C[C@@H](OCc1ccccc1)[C@@H](C#N)NC(=O)[C@H](Cc1cccc(Cl)c1)NC(=O)c1cccc(-c2cccnc2)c1 | 12.6 | 1 | > 10000 | 5.01 | – | – | – | 9.01 | 33.1 | – | – | – | – | –
7 | C[C@@H](OCc1ccccc1)[C@@H](C#N)NC(=O)[C@H](Cc1c[nH]c2ccccc12)NC(=O)c1ccc(-c2ccccc2)cc1 | 158 | 794 | > 10000 | 50.1 | – | – | 70 | – | – | 12 | – | – | – | –
8 | C[C@@H](OCc1ccccc1)[C@@H](C#N)NC(=O)[C@H](Cc1cccc(Br)c1)NC(=O)Cc1ccc(-c2ccccc2)cc1 | 501 | > 10000 | > 10000 | > 10000 | 59 | – | > 90 | – | – | – | > 50 | > 90 | > 50 | > 50

More lines, now with the values ahead:

Row | Ki (Cathepsin S [1]) [nM] | Ki (Procathepsin L [2]) [nM] | Ki (Cathepsin K) [nM] | Ki (Cathepsin B [3]) [nM] | inhibition (Procathepsin L [4]) [%] | inhibition (Cathepsin S [5]) [%] | inhibition [6] [%] | IC50 (Cathepsin B [7]) [nM] | IC50 (Cathepsin B [8]) [nM] | Ratio pKi (Homo sapiens [9]) | Ratio pKi (Homo sapiens [10]) | inhibition (Cathepsin B [11]) [%] | Ratio pKi (Homo sapiens [12]) | Ratio pKi [13] | SMILES
9 | 501 | 158 | 10000 | 200 | – | – | – | – | – | – | – | – | – | – | C[C@@H](OCc1ccccc1)[C@@H](C#N)NC(=O)[C@H](Cc1cccc(Cl)c1)NS(=O)(=O)c1ccc(-c2ccccc2)cc1
10 | > 10000 | > 10000 | > 10000 | 158 | > 90 | 86 | 51 | – | – | – | – | – | – | – | C[C@@H](OCc1ccccc1)[C@@H](C#N)NC(=O)[C@H](Cc1ccc(Br)cc1)NC(=O)c1ccc(-c2ccccc2)cc1
11 | 15.8 | 20 | > 10000 | 63.1 | – | – | 82 | – | – | – | – | – | – | – | C[C@@H](OCc1ccccc1)[C@@H](C#N)NC(=O)[C@H](Cc1cccc(Cl)c1)NC(=O)c1cccc(-c2cncnc2)c1
12 | 63.1 | 15.8 | 6310 | 12.6 | – | – | – | – | – | – | – | – | – | – | C[C@@H](OCc1ccccc1)[C@@H](C#N)NC(=O)[C@H](Cc1cccc(Cl)c1)NC(=O)c1ccc(-c2cncnc2)cc1
13 | 31.6 | 20 | 5010 | 12.6 | – | – | – | – | – | – | – | – | – | – | C[C@@H](OCc1ccccc1)[C@@H](C#N)NC(=O)[C@H](Cc1cccc(Br)c1)NC(=O)c1ccc(-c2cncnc2)cc1
14 | 158 | 0.501 | 2510 | 158 | – | – | – | – | – | – | – | – | – | – | C[C@@H](OCc1ccccc1)[C@@H](C#N)NC(=O)[C@H](Cc1cccc(Br)c1)NC(=O)c1cc(C(C)(C)C)nn1C
15 | 39.8 | 20 | > 10000 | 12.6 | – | – | 84 | – | – | – | – | – | – | – | C[C@@H](OCc1ccccc1)[C@@H](C#N)NC(=O)[C@H](Cc1cccc(Br)c1)NC(=O)c1ccc(-c2cccnc2)cc1
16 | 20 | 20 | > 10000 | 31.6 | – | – | – | – | – | – | – | – | – | – | C[C@@H](OCc1ccccc1)[C@@H](C#N)NC(=O)[C@H](Cc1cccc(Br)c1)NC(=O)c1cccc(-c2cccnc2)c1
17 | 15.8 | 0.631 | 3980 | 63.1 | – | – | – | – | – | – | – | – | – | – | C[C@@H](OCc1ccccc1)[C@@H](C#N)NC(=O)[C@H](Cc1cccc(Cl)c1)NC(=O)c1cccc(Br)c1
18 | 50.1 | 50.1 | > 10000 | 126 | – | – | – | – | – | – | – | – | – | – | C[C@@H](OCc1ccccc1)[C@@H](C#N)NC(=O)[C@H](Cc1cccc(Cl)c1)NC(=O)c1cccc(-c2ccccc2)c1
